Like-named read-outs stand apart in the source and are kept apart here. Numbered stars: 1 amine (or outer) side, 2 acyl side, 3 side chain; on linkers, the order of the positions; unused ones are H or OH. Bridge positions count the residues as written; N and C are the ends. Square brackets hold non-standard residues; d marks the D form. Peptide text beside a SMILES is read from it. * marks the point of attachment. C20 diacid = O=C(O)CCCCCCCCCCCCCCCCCCC(=O)*; γGlu = O=C(O)[C@H](CCC(=O)[*:2])N[*:1]; NMeI = CC[C@H](C)[C@H](NC)C(=O)O; Sar = CNCC(=O)O
Columns and labels:
[1] = target: T1, human amylin receptor 3 (hAMYR3) consisting of hCTR2 co-expressed with human Receptor Activity Modifying Protein 3 (hRAMP3) (Homo sapiens, UniProt O60896+P30988); assay: hAMYR3 assay: induction of cAMP (AlphaScreen cAMP Assay kit) in COS7 cells expressing hAMYR3; assay type: cell-based; conditions: cAMP induction in COS7 cells expressing hAMYR3; average of a minimum of 3 determinations; read-out: hAMY R3 EC50
T1 construct: expressed in transfected cells
T1 sequence (P30988 25-474): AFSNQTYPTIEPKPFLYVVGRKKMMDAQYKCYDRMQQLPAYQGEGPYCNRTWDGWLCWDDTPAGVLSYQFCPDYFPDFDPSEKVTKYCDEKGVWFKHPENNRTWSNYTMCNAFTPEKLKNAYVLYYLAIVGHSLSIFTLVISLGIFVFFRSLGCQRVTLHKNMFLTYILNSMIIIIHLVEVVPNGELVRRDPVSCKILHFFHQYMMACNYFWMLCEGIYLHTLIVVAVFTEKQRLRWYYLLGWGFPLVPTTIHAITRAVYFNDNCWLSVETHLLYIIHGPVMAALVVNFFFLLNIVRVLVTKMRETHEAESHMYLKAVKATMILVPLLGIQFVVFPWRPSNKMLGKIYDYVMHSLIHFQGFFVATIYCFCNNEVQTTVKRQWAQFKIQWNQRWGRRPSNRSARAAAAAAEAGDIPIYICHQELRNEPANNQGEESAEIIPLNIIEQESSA
T1 sequence (O60896 24-148 partner): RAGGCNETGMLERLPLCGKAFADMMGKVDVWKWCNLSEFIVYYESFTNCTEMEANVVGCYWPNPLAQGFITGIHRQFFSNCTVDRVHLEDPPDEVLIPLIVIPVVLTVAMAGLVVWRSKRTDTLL
Procedure, shortened: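 Stable COS7 clone co-expressing hCTR2 and hRAMP3, stimulated 15 min at 37° C with increasing peptide in Tyrode buffer pH 7.4 with 100 µM IBMX and 0.1% casein. cAMP measured by AlphaScreen after lysis; EC50 and % efficacy versus pramlintide from 4PL fit.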

[2] = Solubility assessment (turbidity absorbance at 325 nm); assay type: physicochemical; conditions: stock 2 mg/ml diluted 1:1, ambient temperature (typically 25°C), n=1; for Solubility, Acetate buffer pH 4: 100 mM acetate buffer pH 4.0; for Solubility, Acetate buffer pH 5: 100 mM acetate buffer pH 5.0; for Solubility, Histidine buffer pH 6: 100 mM histidine buffer pH 6.0; for Solubility, Histidine buffer pH 7: 100 mM histidine buffer pH 7.0; for Solubility, Phosphate buffer pH 6: 100 mM phosphate buffer pH 6.0; for Solubility, Phosphate buffer pH 7: 100 mM phosphate buffer pH 7.0; for Solubility, Phosphate buffer pH 7.5: 100 mM phosphate buffer pH7.5
Procedure, shortened: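 Peptide stock (2 mg/ml, water pH 2.5) diluted 1:1 into 100 mM acetate (pH 4.0, 5.0), histidine (pH 6.0, 7.0) or phosphate (pH 6.0–7.5) buffer; absorbance at 325 nm read at about 25°C, n=1. A325 ≤ 0.02 taken as solubility ≥ 1 mg/ml.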

[3] = target: T2, human calcitonin receptor (hCTR2) (Homo sapiens, UniProt P30988); assay: hCTR2 assay: induction of cAMP (AlphaScreen cAMP Assay kit) in COS7 cells expressing hCTR2; assay type: cell-based
T2 construct: expressed in transfected cells
T2 sequence (P30988 25-474): T1 sequence (P30988 25-474)
Procedure, shortened: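 Stable hCTR2 clone in RAMP-naive COS7 cells; peptides titrated in Tyrode buffer (pH 7.4) with 100 µM IBMX, 0.1% casein, 15 min at 37° C. cAMP read by AlphaScreen after lysis; EC50 and efficacy relative to pramlintide from 4PL fit.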

SMILES	EC50 [1] [nM]	Solubility, Acetate buffer pH 4 [2]	Solubility, Acetate buffer pH 5 [2]	Solubility, Histidine buffer pH 6 [2]	Solubility, Histidine buffer pH 7 [2]	Solubility, Phosphate buffer pH 6 [2]	Solubility, Phosphate buffer pH 7 [2]	Solubility, Phosphate buffer pH 7.5 [2]	EC50 [3] [nM]	EC50 ([3]; cAMP induction in COS7 cells expressing hCTR2, average of a minimum of 3 determinations, read-out: hCTR2 EC50) [nM]
CC[C@H](C)[C@@H](C(=O)N[C@@H](CC(C)C)C(=O)N[C@@H](CO)C(=O)N[C@@H](CO)C(=O)N[C@H](C(=O)N[C@@H](CCC(=O)O)C(=O)N[C@H](C(=O)NCC(=O)N[C@@H](CO)C(=O)N[C@@H](CCC(=O)O)C(=O)N[C@H](C(=O)N1CCC[C@H]1C(N)=O)[C@@H](C)O)C(C)C)[C@@H](C)O)N(C)C(=O)[C@H](C)NC(=O)CN(C)C(=O)[C@H](Cc1ccccc1)NC(=O)[C@H](CO)NC(=O)[C@H](CO)NC(=O)[C@H](CO)NC(=O)[C@H](CO)NC(=O)[C@H](CCCNC(=N)N)NC(=O)[C@H](Cc1c[nH]cn1)NC(=O)[C@H](CC(C)C)NC(=O)[C@H](Cc1ccccc1)NC(=O)[C@H](CCC(=O)O)NC(=O)[C@H](C)NC(=O)[C@H](CC(C)C)NC(=O)[C@H](CCCNC(=N)N)NC(=O)[C@H](C)NC(=O)[C@@H](NC(=O)[C@H](C)NC(=O)[C@@H]1CSSC[C@H](NC(=O)[C@H](CCCNC(=N)N)NC(=O)CC[C@H](NC(=O)CCCCCCCCCCCCCCCCCCC(=O)O)C(=O)O)C(=O)N2CCC[C@H]2C(=O)N[C@@H]([C@@H](C)O)C(=O)N[C@@H](C)C(=O)N[C@@H]([C@@H](C)O)C(=O)N1)[C@@H](C)O [Compound 147, [19CD]-isoGlu-RC()PTATC()ATARLAEFLHRSSSSF-Gly(Me)-A-Ile(Me)-LSSTEVGSETP-NH2] ({C20 diacid-γGlu}-RCPTATCATARLAEFLHRSSSSF[Sar]A[NMeI]LSSTEVGSETP-NH2; disulfide 2-7)	0.16	SS (SS indicates solubility ≥ 1mg/ml)	II (II indicates solubility ≤ 1 mg/ml)	SS (SS indicates solubility ≥ 1mg/ml)	SS (SS indicates solubility ≥ 1mg/ml)	SS (SS indicates solubility ≥ 1mg/ml)	SS (SS indicates solubility ≥ 1mg/ml)	SS (SS indicates solubility ≥ 1mg/ml)	0.16	
CC[C@H](C)[C@@H](C(=O)N[C@@H](CC(C)C)C(=O)N[C@@H](CO)C(=O)N[C@@H](CO)C(=O)N[C@H](C(=O)N[C@@H](CCC(=O)O)C(=O)N[C@H](C(=O)NCC(=O)N[C@@H](CO)C(=O)N[C@@H](CCC(=O)O)C(=O)N[C@H](C(=O)N1CCC[C@H]1C(N)=O)[C@@H](C)O)C(C)C)[C@@H](C)O)N(C)C(=O)[C@H](C)NC(=O)CN(C)C(=O)[C@H](Cc1ccccc1)NC(=O)[C@H](CO)NC(=O)[C@H](CO)NC(=O)[C@H](CO)NC(=O)[C@H](CO)NC(=O)[C@H](CCCNC(=N)N)NC(=O)[C@H](Cc1c[nH]cn1)NC(=O)[C@H](CC(C)C)NC(=O)[C@H](Cc1ccccc1)NC(=O)[C@H](CCC(=O)O)NC(=O)[C@H](C)NC(=O)[C@H](CC(C)C)NC(=O)[C@H](CCCNC(=N)N)NC(=O)[C@H](CC(=O)O)NC(=O)[C@@H](NC(=O)[C@H](C)NC(=O)[C@@H]1CSSC[C@H](NC(=O)[C@H](CCCNC(=N)N)NC(=O)CC[C@H](NC(=O)CCCCCCCCCCCCCCCCCCC(=O)O)C(=O)O)C(=O)N[C@@H](CO)C(=O)N[C@@H]([C@@H](C)O)C(=O)N[C@@H](C)C(=O)N[C@@H]([C@@H](C)O)C(=O)N1)[C@@H](C)O [Compound 148, [19CD]-isoGlu-RC()STATC()ATDRLAEFLHRSSSSF-Gly(Me)-A-Ile(Me)-LSSTEVGSETP-NH2] ({C20 diacid-γGlu}-RCSTATCATDRLAEFLHRSSSSF[Sar]A[NMeI]LSSTEVGSETP-NH2; disulfide 2-7)	0.17	SS (SS indicates solubility ≥ 1mg/ml)	SS (SS indicates solubility ≥ 1mg/ml)	SS (SS indicates solubility ≥ 1mg/ml)	SS (SS indicates solubility ≥ 1mg/ml)	SS (SS indicates solubility ≥ 1mg/ml)	SS (SS indicates solubility ≥ 1mg/ml)	SS (SS indicates solubility ≥ 1mg/ml)		0.14
CC[C@H](C)[C@@H](C(=O)N[C@@H](CC(C)C)C(=O)N[C@@H](CO)C(=O)N[C@@H](CO)C(=O)N[C@H](C(=O)N[C@@H](CCC(=O)O)C(=O)N[C@H](C(=O)NCC(=O)N[C@@H](CO)C(=O)N[C@@H](CCC(=O)O)C(=O)N[C@H](C(=O)N1CCC[C@H]1C(N)=O)[C@@H](C)O)C(C)C)[C@@H](C)O)N(C)C(=O)[C@H](C)NC(=O)CN(C)C(=O)[C@H](Cc1ccccc1)NC(=O)[C@H](CO)NC(=O)[C@H](CO)NC(=O)[C@H](CO)NC(=O)[C@H](CO)NC(=O)[C@H](CCCNC(=N)N)NC(=O)[C@H](Cc1c[nH]cn1)NC(=O)[C@H](CC(C)C)NC(=O)[C@H](Cc1ccccc1)NC(=O)[C@H](CCC(=O)O)NC(=O)[C@H](C)NC(=O)[C@H](CC(C)C)NC(=O)[C@H](CCCNC(=N)N)NC(=O)[C@H](CC(=O)O)NC(=O)[C@@H](NC(=O)[C@H](C)NC(=O)[C@@H]1CSSC[C@H](NC(=O)[C@H](CCCNC(=N)N)NC(=O)CC[C@H](NC(=O)CCCCCCCCCCCCCCCCCCC(=O)O)C(=O)O)C(=O)N[C@@H](CC(=O)O)C(=O)N[C@@H]([C@@H](C)O)C(=O)N[C@@H](C)C(=O)N[C@@H]([C@@H](C)O)C(=O)N1)[C@@H](C)O [Compound 149, [19CD]-isoGlu-RC()DTATC()ATDRLAEFLHRSSSSF-Gly(Me)-A-Ile(Me)-LSSTEVGSETP-NH2] ({C20 diacid-γGlu}-RCDTATCATDRLAEFLHRSSSSF[Sar]A[NMeI]LSSTEVGSETP-NH2; disulfide 2-7)	0.26	SS (SS indicates solubility ≥ 1mg/ml)	SS (SS indicates solubility ≥ 1mg/ml)	SS (SS indicates solubility ≥ 1mg/ml)	SS (SS indicates solubility ≥ 1mg/ml)	SS (SS indicates solubility ≥ 1mg/ml)	SS (SS indicates solubility ≥ 1mg/ml)	SS (SS indicates solubility ≥ 1mg/ml)	0.16	

From patent publication EP3046573B1, “AMYLIN ANALOGUES” (Zealand Pharma A/S, priority 2013, dated 2015)
